Reference: ChEMBL document CHEMBL3991601, “The target landscape of clinical kinase drugs” (Science, 2017)
Activity calls are given as the source filed them. Rule as the data show it, for most assays here: actives have a measured Kd and inactives only a lower limit.

What was measured:
[1] = target: Calcium/calmodulin-dependent protein kinase type II subunit gamma (Homo sapiens, UniProt Q13555)
[2] = target: Dual specificity tyrosine-phosphorylation-regulated kinase 1A (Homo sapiens, UniProt Q13627)
[3] = target: T1, Serine/threonine-protein kinase STK11 (Homo sapiens, UniProt Q15831)
T1 sequence (Q15831 whole entry): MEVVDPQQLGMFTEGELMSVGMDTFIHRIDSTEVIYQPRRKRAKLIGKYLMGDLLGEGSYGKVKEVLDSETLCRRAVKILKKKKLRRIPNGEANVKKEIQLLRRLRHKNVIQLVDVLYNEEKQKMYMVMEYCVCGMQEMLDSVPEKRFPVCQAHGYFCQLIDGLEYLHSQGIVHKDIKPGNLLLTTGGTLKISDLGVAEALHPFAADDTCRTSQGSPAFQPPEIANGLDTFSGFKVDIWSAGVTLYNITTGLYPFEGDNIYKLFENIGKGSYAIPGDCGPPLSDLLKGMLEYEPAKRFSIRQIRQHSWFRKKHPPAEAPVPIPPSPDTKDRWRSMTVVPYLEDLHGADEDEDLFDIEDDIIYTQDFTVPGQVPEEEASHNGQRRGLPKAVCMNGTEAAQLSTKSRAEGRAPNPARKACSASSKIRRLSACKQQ

[4] = target: Serine/threonine-protein kinase N2 (Homo sapiens, UniProt Q16513)
Chain of Serine/threonine-protein kinase N2 (Q16513 whole entry): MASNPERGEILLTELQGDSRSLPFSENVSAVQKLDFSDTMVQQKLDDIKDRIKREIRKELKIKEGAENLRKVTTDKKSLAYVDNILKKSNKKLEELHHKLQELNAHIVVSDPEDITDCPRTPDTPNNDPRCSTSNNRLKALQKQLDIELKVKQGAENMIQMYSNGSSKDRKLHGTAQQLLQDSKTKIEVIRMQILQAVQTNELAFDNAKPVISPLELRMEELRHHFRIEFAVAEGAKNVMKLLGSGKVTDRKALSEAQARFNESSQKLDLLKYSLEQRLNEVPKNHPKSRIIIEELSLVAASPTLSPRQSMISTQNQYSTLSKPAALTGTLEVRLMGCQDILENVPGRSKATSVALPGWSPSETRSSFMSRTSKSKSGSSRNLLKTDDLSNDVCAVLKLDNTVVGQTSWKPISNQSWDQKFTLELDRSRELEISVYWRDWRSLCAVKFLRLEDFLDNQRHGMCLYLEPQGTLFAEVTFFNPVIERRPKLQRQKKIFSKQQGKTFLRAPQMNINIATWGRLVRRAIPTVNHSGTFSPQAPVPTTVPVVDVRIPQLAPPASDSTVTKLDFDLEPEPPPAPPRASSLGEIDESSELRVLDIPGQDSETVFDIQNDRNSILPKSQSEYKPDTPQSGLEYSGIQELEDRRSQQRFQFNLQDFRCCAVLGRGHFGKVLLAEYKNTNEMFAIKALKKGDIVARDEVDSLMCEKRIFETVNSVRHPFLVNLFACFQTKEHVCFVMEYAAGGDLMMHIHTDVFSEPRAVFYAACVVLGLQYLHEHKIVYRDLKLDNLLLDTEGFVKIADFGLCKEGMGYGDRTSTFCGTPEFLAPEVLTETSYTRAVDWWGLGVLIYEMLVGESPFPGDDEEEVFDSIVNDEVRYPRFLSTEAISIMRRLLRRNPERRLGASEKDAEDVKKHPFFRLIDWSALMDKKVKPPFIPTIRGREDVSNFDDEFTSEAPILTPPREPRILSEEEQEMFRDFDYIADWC

[5] = target: T2, Mitogen-activated protein kinase kinase kinase 5 (Homo sapiens, UniProt Q99683)
T2 sequence (Q99683 whole entry): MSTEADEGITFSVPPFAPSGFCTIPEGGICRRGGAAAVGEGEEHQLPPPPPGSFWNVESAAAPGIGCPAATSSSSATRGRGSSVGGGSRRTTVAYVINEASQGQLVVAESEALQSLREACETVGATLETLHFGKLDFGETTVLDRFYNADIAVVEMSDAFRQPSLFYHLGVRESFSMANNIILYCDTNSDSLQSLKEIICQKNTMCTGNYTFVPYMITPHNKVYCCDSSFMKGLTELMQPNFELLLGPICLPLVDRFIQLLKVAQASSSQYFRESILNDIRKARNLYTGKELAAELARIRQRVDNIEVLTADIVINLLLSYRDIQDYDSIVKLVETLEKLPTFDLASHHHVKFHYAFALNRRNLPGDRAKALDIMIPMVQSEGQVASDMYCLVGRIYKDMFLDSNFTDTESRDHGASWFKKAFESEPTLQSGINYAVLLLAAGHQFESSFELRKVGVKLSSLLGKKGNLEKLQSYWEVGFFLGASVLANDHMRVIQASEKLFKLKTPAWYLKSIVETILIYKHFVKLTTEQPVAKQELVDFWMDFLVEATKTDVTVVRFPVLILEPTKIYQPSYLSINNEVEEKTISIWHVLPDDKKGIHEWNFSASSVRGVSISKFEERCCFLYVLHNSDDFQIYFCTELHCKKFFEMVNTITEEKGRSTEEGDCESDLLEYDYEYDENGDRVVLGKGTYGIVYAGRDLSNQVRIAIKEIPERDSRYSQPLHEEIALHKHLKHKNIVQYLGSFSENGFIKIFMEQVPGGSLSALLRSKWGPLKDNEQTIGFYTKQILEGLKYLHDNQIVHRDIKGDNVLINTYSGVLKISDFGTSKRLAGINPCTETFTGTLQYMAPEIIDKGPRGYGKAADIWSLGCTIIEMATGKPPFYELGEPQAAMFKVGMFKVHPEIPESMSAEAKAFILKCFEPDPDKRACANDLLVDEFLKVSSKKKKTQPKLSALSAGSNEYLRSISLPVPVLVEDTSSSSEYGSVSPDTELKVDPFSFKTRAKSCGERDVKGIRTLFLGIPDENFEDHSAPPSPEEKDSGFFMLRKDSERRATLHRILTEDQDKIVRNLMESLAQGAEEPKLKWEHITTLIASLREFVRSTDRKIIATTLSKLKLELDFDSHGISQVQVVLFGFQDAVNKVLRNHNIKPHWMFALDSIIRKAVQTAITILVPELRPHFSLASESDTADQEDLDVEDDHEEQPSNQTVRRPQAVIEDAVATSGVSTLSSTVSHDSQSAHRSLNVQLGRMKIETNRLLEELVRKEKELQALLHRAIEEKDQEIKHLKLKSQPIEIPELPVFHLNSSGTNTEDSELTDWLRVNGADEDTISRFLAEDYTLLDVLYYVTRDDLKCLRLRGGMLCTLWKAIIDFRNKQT

[6] = target: Mitogen-activated protein kinase kinase kinase kinase 1 (Homo sapiens, UniProt Q92918)
Chain of Mitogen-activated protein kinase kinase kinase kinase 1 (Q92918 whole entry): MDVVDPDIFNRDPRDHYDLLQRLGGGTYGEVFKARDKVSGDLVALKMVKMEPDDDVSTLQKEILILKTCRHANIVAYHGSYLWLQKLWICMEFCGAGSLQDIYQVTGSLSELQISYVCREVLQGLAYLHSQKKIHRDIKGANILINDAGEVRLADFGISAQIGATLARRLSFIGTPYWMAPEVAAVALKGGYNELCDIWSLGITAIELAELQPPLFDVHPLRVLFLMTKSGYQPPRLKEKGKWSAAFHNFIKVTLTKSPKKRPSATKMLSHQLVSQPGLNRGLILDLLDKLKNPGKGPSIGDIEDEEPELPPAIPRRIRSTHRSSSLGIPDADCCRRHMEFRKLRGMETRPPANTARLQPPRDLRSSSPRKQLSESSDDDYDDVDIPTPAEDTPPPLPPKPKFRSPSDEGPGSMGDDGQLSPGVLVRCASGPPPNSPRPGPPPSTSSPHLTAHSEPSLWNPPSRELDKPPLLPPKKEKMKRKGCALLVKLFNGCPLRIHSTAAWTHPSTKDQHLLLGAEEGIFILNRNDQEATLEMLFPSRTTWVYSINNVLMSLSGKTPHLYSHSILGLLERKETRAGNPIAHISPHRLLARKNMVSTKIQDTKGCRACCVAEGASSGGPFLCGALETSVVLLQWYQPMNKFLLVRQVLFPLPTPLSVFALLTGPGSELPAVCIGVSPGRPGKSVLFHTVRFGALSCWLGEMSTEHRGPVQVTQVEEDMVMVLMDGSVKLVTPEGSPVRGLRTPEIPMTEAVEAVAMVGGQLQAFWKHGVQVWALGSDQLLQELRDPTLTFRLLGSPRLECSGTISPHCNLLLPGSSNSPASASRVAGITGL

[7] = target: Adenylate kinase 2, mitochondrial (Homo sapiens, UniProt P54819)
Aurora kinase A = target: T3, Aurora kinase A (Homo sapiens, UniProt O14965)
T3 sequence (O14965 whole entry): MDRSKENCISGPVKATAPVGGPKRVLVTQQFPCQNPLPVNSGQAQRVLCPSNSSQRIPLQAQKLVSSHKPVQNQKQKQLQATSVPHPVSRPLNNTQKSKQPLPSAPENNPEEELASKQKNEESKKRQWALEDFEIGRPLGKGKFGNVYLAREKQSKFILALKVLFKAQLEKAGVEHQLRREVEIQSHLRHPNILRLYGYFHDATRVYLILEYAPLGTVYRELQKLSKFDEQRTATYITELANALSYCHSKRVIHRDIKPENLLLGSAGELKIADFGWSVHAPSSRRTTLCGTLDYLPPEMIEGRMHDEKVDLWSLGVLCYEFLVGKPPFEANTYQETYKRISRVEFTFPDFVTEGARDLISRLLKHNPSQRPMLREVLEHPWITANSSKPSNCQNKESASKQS

Activin receptor type-1 = target: T4, Activin receptor type-1 (Homo sapiens, UniProt Q04771)
T4 sequence (Q04771 whole entry): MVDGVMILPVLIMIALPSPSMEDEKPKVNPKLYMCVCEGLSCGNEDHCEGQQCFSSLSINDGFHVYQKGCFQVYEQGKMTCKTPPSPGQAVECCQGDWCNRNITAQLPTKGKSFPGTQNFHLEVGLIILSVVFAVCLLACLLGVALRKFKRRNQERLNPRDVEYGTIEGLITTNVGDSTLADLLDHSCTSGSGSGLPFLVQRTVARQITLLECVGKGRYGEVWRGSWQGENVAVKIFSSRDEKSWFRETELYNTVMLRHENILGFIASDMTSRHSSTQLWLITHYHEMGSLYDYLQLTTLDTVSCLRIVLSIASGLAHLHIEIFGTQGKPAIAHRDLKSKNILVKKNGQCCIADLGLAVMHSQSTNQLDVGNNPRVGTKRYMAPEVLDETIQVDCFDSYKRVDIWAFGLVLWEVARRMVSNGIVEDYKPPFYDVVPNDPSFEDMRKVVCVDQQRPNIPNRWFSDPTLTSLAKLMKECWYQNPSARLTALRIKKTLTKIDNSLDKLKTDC
Also: in the data inactive means no Kd found up to 30 µM.

Chain of Calcium/calmodulin-dependent protein kinase type II subunit gamma (Q13555 whole entry): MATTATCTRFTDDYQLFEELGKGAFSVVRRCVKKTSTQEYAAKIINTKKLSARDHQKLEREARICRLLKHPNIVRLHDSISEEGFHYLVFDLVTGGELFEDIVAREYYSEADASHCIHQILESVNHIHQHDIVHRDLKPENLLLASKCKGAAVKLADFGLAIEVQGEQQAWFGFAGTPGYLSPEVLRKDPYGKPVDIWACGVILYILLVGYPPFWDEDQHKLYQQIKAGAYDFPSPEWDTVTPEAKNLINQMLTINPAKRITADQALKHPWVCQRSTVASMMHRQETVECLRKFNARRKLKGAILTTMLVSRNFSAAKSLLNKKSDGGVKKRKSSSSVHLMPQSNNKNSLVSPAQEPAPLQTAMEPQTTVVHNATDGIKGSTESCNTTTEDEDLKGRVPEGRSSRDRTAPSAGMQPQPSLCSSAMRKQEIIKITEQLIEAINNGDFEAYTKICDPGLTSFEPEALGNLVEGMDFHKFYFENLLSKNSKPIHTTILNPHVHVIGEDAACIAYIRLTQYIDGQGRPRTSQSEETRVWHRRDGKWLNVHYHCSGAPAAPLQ

Kd [1] | Kd [2] | Kd [3] | Kd [4] | Kd [5] | Kd [6] | Kd [7] | Kd (Aurora kinase A) | Kd (Activin receptor type-1) | SMILES
> 30 µM (inactive) | > 30 µM (inactive) | > 30 µM (inactive) | > 30 µM (inactive) | > 30 µM (inactive) | > 30 µM (inactive) | > 30 µM (inactive) | > 30 µM (inactive) | > 30 µM (inactive) | Cn1ncc(Cl)c1-c1cc(C(=O)N[C@H](CN)Cc2cccc(F)c2)sc1Cl [AFURESERTIB]
> 30 µM (inactive) | > 30 µM (inactive) | > 30 µM (inactive) | > 30 µM (inactive) | > 30 µM (inactive) | > 30 µM (inactive) | > 30 µM (inactive) | > 30 µM (inactive) | > 30 µM (inactive) | COC(=O)N[C@@H](C)CNc1nccc(-c2cn(C(C)C)nc2-c2cc(Cl)cc(NS(C)(=O)=O)c2F)n1 [ENCORAFENIB]
> 30 µM (inactive) | > 30 µM (inactive) | > 30 µM (inactive) | > 30 µM (inactive) | > 30 µM (inactive) | – | > 30 µM (inactive) | > 30 µM (inactive) | > 30 µM (inactive) | CNS(=O)(=O)Nc1nccc(Cc2c(C)c3ccc(Oc4ncccn4)cc3oc2=O)c1F [AVUTOMETINIB]
> 30 µM (inactive) | > 30 µM (inactive) | > 30 µM (inactive) | > 30 µM (inactive) | > 30 µM (inactive) | > 30 µM (inactive) | > 30 µM (inactive) | – | 0.121 µM (active) | O=C(O)[C@]1(Cc2cccc(Nc3nccs3)n2)CC[C@@H](Oc2cccc(Cl)c2F)CC1 [MK-5108]
> 30 µM (inactive) | > 30 µM (inactive) | > 30 µM (inactive) | > 30 µM (inactive) | > 30 µM (inactive) | > 30 µM (inactive) | – | > 30 µM (inactive) | > 30 µM (inactive) | C[C@@H](Nc1cc(F)cc(F)c1)c1cc(C(=O)N(C)C)cc2c(=O)cc(N3CCOCC3)oc12 [AZD-8186]
> 30 µM (inactive) | – | > 30 µM (inactive) | > 30 µM (inactive) | > 30 µM (inactive) | > 30 µM (inactive) | > 30 µM (inactive) | – | – | OCCn1cc(-c2cnc3nnn(Cc4ccc5ncccc5c4)c3n2)cn1 [PF-04217903]
> 30 µM (inactive) | – | 0.497 µM (active) | > 30 µM (inactive) | > 30 µM (inactive) | > 30 µM (inactive) | > 30 µM (inactive) | – | > 30 µM (inactive) | CCc1cnn2c(NCc3ccc[n+]([O-])c3)cc(N3CCCC[C@H]3CCO)nc12 [DINACICLIB]
– | – | > 30 µM (inactive) | – | – | > 30 µM (inactive) | > 30 µM (inactive) | – | 0.396 µM (active) | Cc1nc(N)sc1-c1ccnc(Nc2ccc(N3CCOCC3)cc2)n1 [CYC-116]
– | – | – | – | – | – | > 30 µM (inactive) | – | – | CN1CCN(c2ccc3nc(-c4c(N)c5c(F)cccc5[nH]c4=O)[nH]c3c2)CC1 [DOVITINIB]
> 30 µM (inactive) | > 30 µM (inactive) | > 30 µM (inactive) | > 30 µM (inactive) | > 30 µM (inactive) | > 30 µM (inactive) | > 30 µM (inactive) | – | > 30 µM (inactive) | COc1cc2nccc(Oc3ccc(NC(=O)NC4CC4)c(Cl)c3)c2cc1C(N)=O [LENVATINIB]
– | – | – | – | > 30 µM (inactive) | > 30 µM (inactive) | > 30 µM (inactive) | – | – | Cc1cc(Nc2cc(N3CCN(C)CC3)nc(/C=C/c3ccccc3)n2)n[nH]1 [ENMD-2076]
– | – | – | – | – | – | > 30 µM (inactive) | – | – | Nc1nc(N)c2nc(-c3cccc(O)c3)c(-c3cccc(O)c3)nc2n1 [TG100-115]
> 30 µM (inactive) | 0.314 µM (active) | > 30 µM (inactive) | > 30 µM (inactive) | > 30 µM (inactive) | > 30 µM (inactive) | – | > 30 µM (inactive) | > 30 µM (inactive) | O=C1NC(=O)/C(=C/c2ccc3nccc(-c4ccncc4)c3c2)S1 [GSK-1059615]
0.243 µM (active) | > 30 µM (inactive) | > 30 µM (inactive) | – | > 30 µM (inactive) | > 30 µM (inactive) | > 30 µM (inactive) | > 30 µM (inactive) | > 30 µM (inactive) | CCS(=O)(=O)N1CC(CC#N)(n2cc(-c3ncnc4[nH]ccc34)cn2)C1 [BARICITINIB]
> 30 µM (inactive) | > 30 µM (inactive) | > 30 µM (inactive) | > 30 µM (inactive) | > 30 µM (inactive) | 0.354 µM (active) | > 30 µM (inactive) | – | > 30 µM (inactive) | COc1cc(CCc2cc(NC(=O)c3ccc(N4C[C@@H](C)N[C@@H](C)C4)cc3)n[nH]2)cc(OC)c1 [AZD-4547]
– | – | – | – | – | – | > 30 µM (inactive) | – | – | CCn1c(-c2nonc2N)nc2c(C#CC(C)(C)O)ncc(OC[C@H]3CCCNC3)c21 [GSK-690693]
> 30 µM (inactive) | > 30 µM (inactive) | – | > 30 µM (inactive) | > 30 µM (inactive) | – | > 30 µM (inactive) | > 30 µM (inactive) | > 30 µM (inactive) | C[C@@H](c1ccc2nccn2c1)n1nnc2ncc(-c3cnn(C)c3)nc21 [SAVOLITINIB]
> 30 µM (inactive) | > 30 µM (inactive) | – | > 30 µM (inactive) | > 30 µM (inactive) | > 30 µM (inactive) | > 30 µM (inactive) | > 30 µM (inactive) | > 30 µM (inactive) | CCn1c(=O)c(-c2cc[nH]n2)cc2c(C)nc(N)nc21 [VOXTALISIB]

SMILES | Kd [1] | Kd [2] | Kd [3] | Kd [4] | Kd [5] | Kd [6] | Kd [7] | Kd (Aurora kinase A) | Kd (Activin receptor type-1)
Cc1cn(-c2cc(NC(=O)c3ccc(C)c(Nc4nccc(-c5cccnc5)n4)c3)cc(C(F)(F)F)c2)cn1 [NILOTINIB] | – | – | – | – | – | – | > 30 µM (inactive) | – | –
O=C(Nc1cccc(Cl)c1)Nc1ncc(CCNc2ncnc3ccsc23)s1 [SNS-314] | – | – | > 30 µM (inactive) | – | > 30 µM (inactive) | > 30 µM (inactive) | > 30 µM (inactive) | – | > 30 µM (inactive)
